In PubChem BioAssay AID624285 (Broad Institute, 2012):
Active and inactive are the calls of the source.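 The calls were made as follows: active = signal-decreasing dose-response curve whose fitted half-maximal concentration is at or below twice the highest valid tested dose; inconclusive = flat fit at 30 to 70% signal loss, or poor fit; inactive = the rest.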

Experiment: cell viability loss after compound exposure – 24 h, luminescence, cherry-picked samples, cytotoxicity control for PDI inhibitor project, dose response (AID 624285)
Conditions: NIH3T3/HeLa viability, CellTiter-Glo ATP luminescence, 24 h; at 35 µM (top of the series)

| Compound | activity change, negative = cytotoxicity |
| --- | --- |
| CN(C)c1ccc(C2(O)C(=O)c3ccccc3C2=O)cc1 | -6.27% (inactive) |
| CNc1ncnc2c1ncn2[C@H]1CN(Cc2cccc3ccccc23)C[C@@H](CO)O1 | -19.8% (inactive) |
| O=C1[C@@H]2C(Cc3ccc(O)cc3)NC3(C(=O)Nc4ccc(F)cc43)[C@@H]2C(=O)N1c1ccccc1 (stereo not given in full) | -14% (inactive) |
| Cc1ccc(SCC(=O)c2sc(-c3ccccc3)nc2C)cc1 | -11.9% (inactive) |
| CC(C)CCOc1ccc(C2(C)NC(=O)N(CN3CCOCC3)C2=O)cc1 (stereo not given) | -15.3% (inactive) |
| O=C(CN(CCc1ccccc1)C(=O)CNS(=O)(=O)c1ccccc1)NCC1CCCO1 (stereo not given) | -1.76% (inactive) |
| COc1ccccc1NC(=O)c1ccc(NC(=O)COC(=O)c2cccnc2Cl)cc1 | -3.13% (inactive) |
| Cc1noc(C)c1S(=O)(=O)Nc1ccc2c(c1)CC(=O)N([C@@H](C)CO)C[C@@H](C)[C@H](CN(C)S(=O)(=O)c1ccc(F)cc1)O2 | -10.5% (inactive) |
| COCC(=O)N(C)C1(c2nnnn2CCOC(=O)Nc2ccc(Cl)cc2)CCCC1 | -5.83% (inactive) |
| COc1ccccc1NS(=O)(=O)c1cccc(C(=O)NCC2(N(C)C)CCCCC2)c1 | -8.59% (inactive) |
| Cc1ccc(NC(=O)NC(=O)CN2CCC(C(N)=O)CC2)c(C)c1 | -4.84% (inactive) |
| Cc1c(O)ccc2c(CN3CCN(CCO)CC3)cc(=O)oc12 | -7.06% (inactive) |
| O=C1C[C@H](c2ccc(O)cc2)Oc2cc(O[C@@H]3O[C@H](CO)[C@@H](O)[C@H](O)[C@H]3O)cc(O[C@@H]3O[C@H](CO)[C@@H](O)[C@H](O)[C@H]3O)c21 | -8.86% (inactive) |
| Clc1cccc(OCCCN2CCCC2)c1Cl | -17% (inactive) |
| Cc1noc(C)c1S(=O)(=O)Nc1ccc2c(c1)CC(=O)N([C@H](C)CO)C[C@@H](C)[C@H](CN(C)S(=O)(=O)c1ccc(F)cc1)O2 | 4.61% (inactive) |
| COc1ccccc1NS(=O)(=O)c1cccc(C(=O)NCC2(N3CCCCC3)CCCCC2)c1 | -10.5% (inactive) |
| CC(C)N1CCCC(C)(C(=O)Nc2nc3ccccc3n2C)C1 (stereo not given) | -8.91% (inactive) |
| CN1C(=O)NC(c2ccccc2)C2=C1CN(c1cccc(C(F)(F)F)c1)C2=O (stereo not given) | -4.45% (inactive) |
| C[C@H]1CN([C@@H](C)CO)C(=O)c2cccc(NS(C)(=O)=O)c2O[C@H]1CN(C)Cc1ccc(Oc2ccccc2)cc1 | -4.63% (inactive) |
| NC(=O)CSc1nnc([C@@H](N)Cc2c[nH]c3ccccc23)o1 | -10.6% (inactive) |
| CC(=O)N(C)C1(c2nnnn2CCOC(=O)Nc2ccc(Cl)cc2)CCCCC1 | -9.52% (inactive) |
| O=C1NC[C@H](Cc2ccc(O)cc2)N(CC2CCCCC2)C1=O | -25.4% (inactive) |
| CN(C)c1ccc(NC(=O)CN2C(=O)CC(c3ccccc3)=Nc3ccccc32)cc1 | -19.2% (inactive) |
| O=C(Nc1cccc(S(=O)(=O)Nc2ccc(SC(F)F)cc2)c1)C1CCC1 | -13.1% (inactive) |
| C=CCNc1ncnc2c1ncn2[C@H]1CN(Cc2cccc3ccccc23)C[C@@H](CO)O1 | -8.26% (inactive) |
| CCOC(=O)C1(CC2CC2)CCN(Cc2cc(Cl)c(O)c(OC)c2)CC1 | -20.4% (inactive) |
| CCOC(=O)C1(C)CCCN(C(=O)c2cccc(Cl)c2)C1 (stereo not given) | -5.27% (inactive) |
| N#Cc1ccccc1CSc1nnc(Cc2ccccc2)o1 | -7.32% (inactive) |
| FC(F)(F)c1cccc(NC(=S)NCc2ccccn2)c1 | -2.29% (inactive) |
| CC(C)N(C)C(=O)CCc1nnc(CCc2c[nH]c3ccccc23)o1 | -10.2% (inactive) |
